Results as given in patent US20210052528A1, “THE USE OF SGC ACTIVATORS AND SGC STIMULATORS FOR THE TREATMENT OF COGNITIVE IMPAIRMENT” (Bayer Aktiengesellschaft, priority 2018, published 2021).
Read-outs that look alike come from different tables or passages of the source.

Experiments:
healthy mice = conditions: cited from earlier work
normotensive Wistar rats = experiment: Measurement of arterial blood pressure in vivo by radiotelemetry in conscious rats; parameters: species or system rat; conditions: over 24 hours; for effect on mean arterial blood pressure (MAP) over the dose range: all tested doses compared to vehicle
Description: Adult normotensive Wistar rats (Wistar HSD CPB:WU) with a body weight of 250 to 350 g were used for these experimental studies. All animals were housed in individual cages at 22-24° C. ambient temperature and maintained on a 12-hour light/dark cycle with free access to standard laboratory rat chow and water ad libitum. All animal experiments were done in accordance to the current national legislation (German protection of animals act and the EU directives on the protection of animals used for scientific purposes). All performed studies were approved by the regional regulatory authority (LANUV NRW in Germany) and by the institutional animal care and use committee of Bayer AG.
Blood pressure is monitored in freely moving conscious rats by radiotelemetry by a telemetric system (DSI Data Science International, MN, USA). A transmitters (TAI1PA-C40) is implanted in the abdomen of the rat during deep anaesthesia. After recovery of the rats, telemetric signals are registered by a receiver plate (RA1010) and compiled by a computer-based acquisition software (Dataquest A.R.T 4.1 for Windows).
After shaving the abdominal wall of the rat, a midline abdominal incision was made, and the fluid-filled sensor catheter was inserted upstream into the exposed descending aorta between the iliac bifurcation and the renal arteries. According to the DSI guidelines the tip of the telemetric catheter was located just caudal to the renal arteries and secured by tissue adhesive. The transmitter body was affixed to the inner peritoneal wall before closure of abdomen. A two-layer closure of the abdominal incision was used, with individual suturing of the peritoneum and the muscle wall followed by closure of the outer skin. Surgery was performed under aseptic conditions. For postsurgical protection against infections and pain a single dosage of an antibiotic (Oxytetracyclin® 10%, 60 mg/kg s.c., 0.06 ml/100 g body weight, Beta-Pharma GmbH & Co, Germany) and analgesic were injected (Rimadyl®, 4 mg/kg s.c., Pfizer, Germany).
After activation of the implanted transmitters, A.R.T., an on-line data acquisition system, samples data and converts telemetric pressure signals to mm Hg. A barometric pressure reference allows for relation of absolute pressure (relative to vacuum) to ambient atmospheric pressure. Data acquisition software was predefined to sample hemodynamic data for 10-s intervals every 5 minutes. Data collection to file was started 2 hours (T=−2 hours) before drug administration (T=0 hours) and finished after completion of 24 hours (T=24 hours).
Data are expressed as % of baseline values. The baseline value for each animal was calculated and represents the mean blood pressure of the 2 hour period (T=−2 hours to T=0 hours) before the administration of drug or vehicle. For further analysis data were grouped to provide mean for every 0.5 hours. The means of all values obtained for each individual during the period indicated were averaged for each day. Groups were compared by one-way ANOVA with Dunnet's test.
All animals were treated with single oral doses of vehicle or the compound in different dosages (e.g. 0.3, 1.0, 3.0, or 10.0 mg/kg). Application volume was 2 ml/kg body weight. The experiment started at 7:00 a.m. (T=−2 hours), vehicle or drug administration took place at 9.00 a.m. (=0 hours) and registration period was 24 hours. For analysis, data were grouped to provide half-hourly averages.

male Wistar rats = experiment: Object Location Task (OLT), learning and memory improvement in vivo; parameters: species or system rat; conditions: for memory performance, discrimination index (d2), compared with chance level (d2=0): one-sample t-test; for memory performance, discrimination index (d2), compared to the vehicle condition: one-way ANOVA, LSD t-tests; for dose with the most prominent effect in the memory test: object location task, rats, dose does not decrease blood pressure
From the text: Therefore, the well accepted Object Location Task (OLT) in rats was used. This task allows the assessment of acquisition, consolidation and retrieval of (spatial) information into memory, and is derived from the Object Recognition Task (ORT) (e.g. Ennaceur and Delacour, 1988; Prickaerts et al., 1997).
All experimental procedures were approved by the local ethical committee of Maastricht University for animal experiments and met governmental guidelines. […] The animals were housed individually in a standard IVC cage system on sawdust bedding in an air-conditioned room (about 20° C.). They were kept under a reversed 12/12 h light/dark cycle (lights on from 19.00 to 07.00) and had free access to food and water. Rats were housed and tested in the same room. A radio, which was playing softly, provided background noise in the room. All testing was done between 09.00 and 17.00.
The test compounds were freshly prepared on every experimental day and were dissolved in 0.5% Tylose solution (98% of the end volume) with 2% Tween80.
The order of the treatments was balanced to prevent the data from being distorted by potential object- and side-preferences of the animals.
The Object Location Task (OLT) was derived from the Object Recognition Test (ORT) (Ennaceur and Delacour, 1988). The OLT is a one-trial learning task which allows the assessment of spatial memory, and was performed as described elsewhere (Bruno et al., 2011, Vanmierlo et al., 2011). In the first (learning) trial a rat is put into an arena in which two identical objects are placed. After a certain delay, the rat is given a second trial. In this second trial the rat is again placed in the same arena but now one of the objects has been moved to a different position within the area. In other words, a new spatial arrangement is being used.
The apparatus consisted of a circular arena, 83 cm in diameter. The back-half of the 40 cm high arena wall was made of gray polyvinyl chloride, the front-half consisted of transparent polyvinyl chloride. The light intensity was equal in the different parts of the apparatus, as fluorescent red tubes provided a constant illumination of about 20 lux on the floor of the apparatus. In the first (learning) trial (T1), two objects were placed in a symmetrical position on a distance of about 10 cm from the wall of the left- and the right-side of the arena. In the second (test) trial (T2), one object is moved to a new location which is about 20 cm higher or lower than the original positon. Four different sets of objects were used. The different objects were: 1) a cone consisting of a gray polyvinyl chloride base (maximal diameter 18 cm) with a collar on top made of aluminum (total height 16 cm), 2) a standard 1 L brown glass bottle (diameter 10 cm, height 22 cm) filled with water, 3) a massive metal cube (10.0×5.0×7.5 cm) with two holes (diameter 1.9 cm), and 4) a solid aluminum cube with a tapering top (13.0×8.0×8.0 cm). Rats were unable to displace the objects.
A testing session consisted of two trials. The duration of each trial was 3 min. During the first trial (T1) the apparatus contained two identical objects. Rats were placed in the apparatus facing the wall at the middle of the front (transparent) segment. After the first exploration period the rat was put back in its home cage. Subsequently, after a 24 h delay interval, the rat was put in the apparatus for the second trial (T2). The total time an animal spent exploring each object during T1 and T2 was recorded manually with a personal computer.
Exploration was defined as follows: directing the nose to the object at a distance of no more than 2 cm and/or touching the object with the nose. Sitting on the object was not considered as exploratory behavior. A minimal amount of object interaction is required in order to achieve reliable object discrimination, therefore rats that explore less than 7 s in T1 and/or 9 s in T2 should be excluded from the analyses (Akkerman et al., 2012).

[1] = 0.1 mg/kg p.o. 30 min before T1, 24 h interval
[2] = 0.3 mg/kg p.o. 30 min before T1, 24 h interval
[3] = 1.0 mg/kg p.o. 30 min before T1, 24 h interval

Structure (SMILES) | spatial memory (healthy mice; higher doses 0.1-0.3 mg/kg) | spatial memory (healthy mice; lower dose 0.01 mg/kg) | spatial memory (healthy mice; single dose of 0.03 mg/kg) | mean arterial blood pressure (MAP) compared to vehicle (normotensive Wistar rats; 1.0 mg/kg single oral dose) | mean arterial blood pressure (MAP) compared to vehicle (normotensive Wistar rats; 3.0 mg/kg single oral dose) | mean arterial blood pressure (MAP) compared to vehicle (normotensive Wistar rats; 10.0 mg/kg single oral dose) | effect on mean arterial blood pressure (MAP) over the dose range (normotensive Wistar rats) | memory performance, discrimination index (d2), compared with chance level (d2=0) (male Wistar rats; 0.03 mg/kg p.o. 30 min before T1, 24 h interval) | memory performance, discrimination index (d2), compared with chance level (d2=0) (male Wistar rats; [1]) | memory performance, discrimination index (d2), compared to the vehicle condition (male Wistar rats; [1]) | memory performance, discrimination index (d2), compared with chance level (d2=0) (male Wistar rats; [2]) | memory performance, discrimination index (d2), compared to the vehicle condition (male Wistar rats; [2]) | memory performance, discrimination index (d2), compared with chance level (d2=0) (male Wistar rats; [3]) | memory performance, discrimination index (d2), compared to the vehicle condition (male Wistar rats; [3]) | dose with the most prominent effect in the memory test (male Wistar rats) | mean arterial blood pressure (MAP) compared to vehicle (normotensive Wistar rats; 0.3 mg/kg single oral dose)
COC(=O)N(C)c1c(N)nc(-c2nn(Cc3ccccc3F)c3ncccc23)nc1N [Riociguat] | no significant effect | no significant effect | able to enhance spatial memory | – | – | – | – | – | – | – | – | – | – | – | – | –
C[C@H]([C@H](C(=O)Nc1cc(C(CC(=O)O)C2CC2)ccc1Cl)c1ccc(Cl)cc1)C(F)(F)F (stereo partly drawn) [compound of formula (1), 3-(4-chloro-3-{[(2S,3R)-2-(4-chlorophenyl)-4,4,4-trifluoro-3-methylbutanoyl]amino}phenyl)-3-cyclopropylpropanoic acid] | – | – | – | no significant decrease | no significant decrease | significantly lowered | dose-dependent effect | improved memory performance | improved memory performance | significant higher memory performance | improved memory performance | significant higher memory performance | improved memory performance | significant higher memory performance | 0.3 mg/kg | –
O=C(O)CCCCN(CCc1cc(F)ccc1OCc1ccc(-c2ccc(C(F)(F)F)cc2)cc1)Cc1ccc(C(=O)O)cc1 [compound of formula (2), 4-({(4-carboxybutyl)[2-(5-fluoro-2-{[4′-(trifluoromethyl)[1,1′-biphenyl]-4-yl]methoxy}phenyl)ethyl]amino}methyl)benzoic acid] | – | – | – | – | – | – | – | – | improved memory performance | – | improved memory performance | significant higher memory performance | improved memory performance | significant higher memory performance | – | –
COC(=O)Nc1c(N)nc(-c2nn(Cc3ccccc3F)c3ncc(F)cc23)nc1N [compound of formula (5), methyl{4,6-diamino-2-[5-fluoro-1-(2-fluorobenzyl)-1H-pyrazolo[3,4-b]pyridine-3-yl]pyrimidin-5-yl}carbamate] | – | – | – | significantly lowered | significantly lowered | – | dose-dependent effect | – | improved memory performance | – | improved memory performance | significant higher memory performance | improved memory performance | significant higher memory performance | 0.3 mg/kg | no significant decrease
